# Assay results published in patent USRE43371E1, “Use of selected cyclosporins for the treatment of hepatitis C infection” (priority 2004, dated 2012).
# Tests used:
# cyclophilin = molecular target: T1, cyclophilin (Homo sapiens, UniProt P62937); test: Peptidyl-prolyl cis-trans isomerase (PPIase) activity of cyclophilin, chymotrypsin-coupled Suc-AAPF-pNA assay; format: biochemical; details: compared with substitution in position 4 only
# T1 construct: purchased Sigma
# Description: Peptidyl-prolyl cis-trans isomerase (PPlase) activity of cyclophilins was determined using a procedure adapted from Kofron et al. (see Biochemistry 30, 6127-6134 (1991); J. Am. Chem. Soc. 114, 2670-2675 (1992)). N-succinylated Ala-Ala-Pro-Phe-para nitro-aniline (Suc-AAPF-pNA, Bachem, Bubendorf, Switzerland) was used as the substrate. The assay was based on the preferential chymotrypsin cleavage of the trans isoform of the Phe-pNA bond in the tetrapeptide Ala-Ala-Pro-Phe-pNA. This cleavage liberates the para-nitroaniline moiety that can be detected and quantitated at 390 nm (ε=11,814 M^−1cm^−1). […] Cis-trans isomerization is catalysed by cyclophilin (PPlase, EC 5.2.1.8). […] Subsequent to the addition of 3.75 mg of chymotrypsin (70 μl of a solution of chymotrypsin in 10 mM HCl), the reaction was initiated by addition of 10 μl of a 3.2 mM solution of Suc-AAPF-pNA in 0.5 M LiCl/trifluoroethanol. The reaction was monitored for 3 min, and an initial rate constant was determined from the data obtained. As a control, an initial rate constant was also determined for a parallel reaction that lacked cyclophilin.
# [1] = tested on: HCV replicon in Huh-9-13 cells; test: HCV replicon clearance and rebound in Huh-9-13 cells; format: cell-based, hepatitis C virus (HCV); details: after 7 consecutive passages at 0.5 or 1 μg/ml; G418 1000 μg/ml for 2 passages (FIG. 3)
# Description: Assays used Huh-9-13 cells, human hepatoma cells (Huh-7) (Lohmann et al., Science 285(5424), (1999), 110-113) Cells were grown in the usual complete medium DMEM without G418 pressure.
# RT-PCR were performed on extracts of viral RNA of samples taken at different passage points. The forward and reverse primers used were 5′-[sequence]-3′ and 5′-[sequence]-3′, respectively. The fluorogenic probe was 5′-[sequence]-3′. As an internal control, a plasmid containing part of the neomycin phosphotransferase gene sequence was used. Results were analysed and expressed as a quantity of replicon RNA (ng) per 1′000 cells and used to draft a graph.
# [2] = tested on: Jc1-Luc recombinant virus (HCV strains J6/JFH1) in Huh-7-Lunet and Huh-7.5 cells; test: Luciferase assay in hepatoma cells infected with Jc1-Luc recombinant HCV; format: cell-based, hepatitis C virus (HCV); details: Huh-7-Lunet and Huh-7.5 cells infected with Jc1-Luc; for antiviral activity: 72 hours (FIGS. 1 and 2)
# Description: The method used hepatoma cells that had been infected with an infectious full length cheieric HCV construct or the same virus that was modified to carry a luciferase […] gene.
# Infectious HCV viruses of full-length chimeric genome between HCV strains J6 and JFH1 (Jc1) were used to inoculate the hepatoma cells of the assays. The construct of Jc1 virus was also modified to obtain a bicistronic genome carrying a luciferase reporter gene (Jc1-Luc). Twenty-four and ninety-six hours after the transfection of RNA transcripts of the genomes by electroporation of Huh-7.5 cells, cell culture supernatant was collected. Supernatants were filtered ([…]) and cell culture infectious dose 50 (CCID50) per ml were determined by the limiting dilution assays according to Lindenbach et al. (Science, 309, (2005), 623-626). The CCID50 were 1.3×105 for Jc1 and 4.2×103 for Jc1-Luc.
# Assays used either Huh-7-Lunet or Huh-7.5 cells (Lohmann et al., Science 285(5424), (1999), 110-113). Cells were grown in Dulbecco's modified Eagle's Medium (DMEM; Gibco) supplemented with 10% heat-inactivated fetal bovine serum (FCS) (Integro), 1× non-essential amino acids (Gibco), 100 IU/ml penicillin (Gibco), 100 μg/ml streptomycin (Gibco) or 25 μg/ml hygromycin (Gibco) for Huh-mono cells at 37° C. and 5% CO2. For antiviral (replication) assays, Huh-7-Lunet and Huh-7.5 cells were seeded at a density of 2×104 or 4×10^4 cells per well of a 12-well plate. Twenty four hours later, the medium was replaced by 0.5 ml of the Jc1-Luc virus stock (12-well plates) or 0.25 ml of the Jc1 virus stock (12-well plates).
# The inhibition of viral replication were estimated by luciferase assay. To carry out luciferase assay, cells were harvested, washed with PBS and lysed in luciferase lysis buffer (1% Triton X-100, 25 mM glycylglycine, 15 mM MgSO4, 4 mM EGTA, and 1 mM DTT). Firefly luciferase activity was measured according to Krieger et al. (J Virol, 75(10), (2001), 4614-4624). […] Finally, luminescence was measured by using a Lumat LB9507 luminometer (Berthold) for 20 samples.
# CD4+ PBMCs = test: Mixed lymphocyte reaction, proliferative response of CD4+ PBMCs; format: cell-based; details: for immunosuppressive activity (interpretation of Table 2): mixed lymphocyte reaction, 1 μg/ml; for % Stimulation (relative): cyclosporin 1 μg/ml, five days, [3H]-thymidine incorporation
# Description: In this assay, cyclosporins were dissolved in ethanol (10 mg/ml). Freshly isolated CD4^+ PBMCs from two healthy donors were mixed subsequent to inactivation by irradiation of one of the populations (stimulator cells; S). […] R) was determined by [^3H]-thymidine incorporation. The assay was conducted reciprocally with the two cell populations, each being inactivated and stimulated in turn. Stimulation (%) of responder cells was calculated by the formula: […] Sample refers to a mixture of stimulator and responder cells. Background represents a control in which only stimulator cells are mixed.
# [3] = Initial phase I clinical studies, safety of oral doses; format: in vivo
# Description: Initial phase I clinical studies were carried out to assess the safety of oral doses of [D-MeAla]^3-[EtVal]^4-CsA, and to determine the pharmacokinetic profile and safety profile of the drug substance. […] These side effects were not dose-related.
# [4] = molecular target: T2, human recombinant cyclophilin A (Homo sapiens, UniProt P62937); test: PPIase activity of cyclophilin A, tight binding inhibitor analysis; format: biochemical; details: for k: rate constant for the rate limiting reaction; for Et: total enzyme concentration from tight binding fit
# T2 construct: purchased Sigma
# T2 sequence (P62937 whole entry): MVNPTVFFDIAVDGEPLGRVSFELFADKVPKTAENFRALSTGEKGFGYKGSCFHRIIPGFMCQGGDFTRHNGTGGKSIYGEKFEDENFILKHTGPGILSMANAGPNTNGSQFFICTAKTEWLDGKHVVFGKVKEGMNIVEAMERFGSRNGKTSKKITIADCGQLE
# Description: Commercial human recombinant cyclophilin A (Sigma) was used in the assays. PPlase activity of cyclophilins was determined using a chymotrypsin-coupled spectrophotometric assay according to Garcia-Echverria et al. (BBRC, 191, (1993), 70-75). This method is based on the high trans selectivity of chymotrypsin for peptides of the type N-succinyl-ala-ala-pro-phe-p-nitroanilide. The peptides cleavage liberated the para-nitroaniline moiety that could be detected and quantitated at 390 nm. The hydrolysis of the cis form was limited by the rate of cis-trans isomerisation carried out by cyclophilin A. The peptide was made up in a solution of […] LiCl in 2,2,2-trifluoroethanol at 470 mM to enhance the cis conformer peptides population. The assay was performed on the split beam spectrophotometer and the water bath was set at 5° C. Cyclophilin A (7500 pmol/mg total enzyme concentration; Sigma) were dissolved at 20 nM in a buffer (35 mM HEPES and 0.26 mg/ml chymotrypsin (specific activity 50 units/mg), pH 7.8 with KOH) and were incubated for 6 minutes at room temperature followed by 54 minutes in the water bath. […] Then 3.5 ml of the incubated cyclophilin was added to the sample cuvette. […] Peptide was added at 25 μM to initiate the reaction and the change in absorbance was monitored at 10 data points per second. As a control, rates were also determined for a parallel reaction that lacked cyclophilin. These blank rates of peptide hydrolysis (i.e. in the absence of cyclophilin) were subtracted from rates in the presence of cyclophilin A.
# The initial rates obtained from the PPlase assays were analysed by first order regression analysis by using first order transformation of the traces of the time course of the change in the absorbance at 390 nm. Total enzyme concentration (Et), the inhibitor dissociation constant (Ki) and the rate constant for the rate limiting reaction was calculated with the software FigSyS (2003, Biosoft) by fitting the data obtained from the regression analysis in the tight binding inhibitor multiprotein equation.
# Once Et, Ki and k were calculated by the computer for a given set of data, a graphic representation of the data was plotted and the line fitted to the points assuming tight inhibitor binding to a single protein, defined by the following equations: v=K*Et*P−K(B−sqrt(B*B−4*C))/2 where B=Et*P+I+Ki and C=Et*P*I.
# [5] = tested on: HCV replicon-containing MH-14 cells; details: cited from earlier work; for HCV RNA accumulation was inhibited: Northern blot and quantitative RT-PCR
# [6] = tested on: HCV replicon (genotype 1 b) in Huh 5-2 cells; details: EC50 derived from RNA titers by quantitative RT-PCR; asterisk = lower of two independently determined values
# Description: (§1) Assays used Huh 5-2 cells that contained a bicistronic RNA encoding a firefly luciferase-ubiquitin-neomycin phosphotransferase fusion protein and HCV proteins NS3-5. The viral sequences originated from an HCV virus of genotype 1 b. Cells were cultured in RPMI 1640 medium (Gibco) supplemented with 10% fetal calf serum, 2 mM glutamine (Life Technologies), 1× non-essential amino acids (Life Technologies), 100 u/ml penicillin, 100 μg/ml streptomycin and 250 μg/ml G418 (Geneticin, Life Technologies) at 37° C. and 5% CO2. For antiviral (replication) assays, cells were seeded at a density of 7000 cells/well in 96-well View Plates™ (Packard) in the same medium except for G418. After a 24-h incubation, medium was removed, serial dilutions of test compounds in medium were added, and cells were incubated for an additional 72 h.
# Results from these experiments permitted calculation of EC50 for the different cyclosporins, which is the effective concentration required to inhibit HCV replicon replication by 50%, and of CC50, which is the concentration required that inhibits the proliferation of exponentially growing cells by 50%, and a selectivity index SI, which is the ratio between CC50 and EC50.
# [7] = tested on: HCV replicon (genotype 1 b) in Huh 5-2 cells
# Description: as §1
# Antiviral effects were estimated either by luciferase assay or quantitative RT-PCR. To carry out luciferase assays, medium was removed, and cells were washed with PBS. Subsequent to lysis in 50 μl of Glo-lysis buffer (Promega) for 15 min, 50 μl of Stead-Glo Luciferase Assay Reagent (Promega) were added to cell lysates. Luciferase activity was measured using a luminometer, and the signal from each test well was expressed as a percentage of the signal measured in wells of cultures not exposed to a test compound. […]
# T1 sequence (P62937 whole entry): as above
molecule,measurement,setting,value
C/C=C/C[C@@H](C)[C@@H](O)[C@H]1C(=O)N[C@@H](CC)C(=O)N(C)[C@H](C)C(=O)N(CC)[C@@H](C(C)C)C(=O)N[C@@H](C(C)C)C(=O)N(C)[C@@H](CC(C)C)C(=O)N[C@@H](C)C(=O)N[C@H](C)C(=O)N(C)[C@@H](CC(C)C)C(=O)N(C)[C@@H](CC(C)C)C(=O)N(C)[C@@H](C(C)C)C(=O)N1C [[D-MeAla]^3-[EtVal]^4-CsA],further increase in cyclophilin binding activity by substitution in position 3,cyclophilin,≥ 2 fold
same,outcome of cultures in the presence of G418 (rebound phase),[1],the cultures died
same,antiviral activity,[2],dose-dependent antiviral activity
same,immunosuppressive activity (interpretation of Table 2),CD4+ PBMCs,essentially devoid of immunosuppressive activity
same,tolerability of oral doses,[3]; doses of 50 to 1600 mg in a micro-emulsion in water,well tolerated
same,side effects,"[3]; oral doses 50 to 1600 mg, not dose-related","Mild and short-lived side effects were observed including nausea, vomiting, abdominal pain, mild headaches"
same,higher affinity for cyclophilin compared to [MeIle]4-CsA,[4]; cyclophilin A,~6 fold
same,k,[4],0.16 ± 0.0074 s − 1
same,Et,[4],7500 pmol/mg
C/C=C/C[C@@H](C)[C@@H](O)[C@H]1C(=O)N[C@@H](CC)C(=O)N(C)CC(=O)N(C)[C@@H]([C@@H](C)CC)C(=O)N[C@@H](C(C)C)C(=O)N(C)[C@@H](CC(C)C)C(=O)N[C@@H](C)C(=O)N[C@H](C)C(=O)N(C)[C@@H](CC(C)C)C(=O)N(C)[C@@H](CC(C)C)C(=O)N(C)[C@@H](C(C)C)C(=O)N1C [[MeIle]^4-CsA],effectiveness in reducing HCV RNA titer relative to CsA,[5]; MH-14 cells,about equally as effective as CsA
same,SI values,[6],73
same,% Stimulation (relative),CD4+ PBMCs; co-culture R1 × S2,84%
same,% Stimulation (relative),CD4+ PBMCs; co-culture R2 × S1,75%
same,immunosuppressive activity (interpretation of Table 2),CD4+ PBMCs,essentially devoid of immunosuppressive activity
same,EC50 +/− Std. Dev.,"[7]; luciferase assay, 72 h",0.22 µg/mL
same,Selectivity index,[7]; ratio between CC50 (MTT) and EC50 (luciferase),64
same,k,[4],0.17 ± 0.0068 s − 1
same,Et,[4],7500 pmol/mg
Cyclosporin A [CsA],reduction of HCV RNA titer,"[5]; 7-day exposure, 1 μg/ml",about 200 fold
same,HCV RNA accumulation was inhibited,[5]; MH-14 cells,inhibited
same,higher concentration needed for the same replication inhibiting effect as [D-MeAla]3-[EtVal]4-CsA,[2],10 fold
same,antiviral activity,[2],dose-dependent antiviral activity
same,k,[4],0.17 ± 0.0069 s − 1
same,Et,[4],7500 pmol/mg
C/C=C/C[C@@H](C)C(=O)[C@H]1C(=O)N[C@@H](C(C)C)C(=O)N(C)CC(=O)N(C)[C@@H](CC(C)C)C(=O)N[C@@H](C(C)C)C(=O)N(C)[C@@H](CC(C)C)C(=O)N[C@@H](C)C(=O)N[C@H](C)C(=O)N(C)[C@@H](CC(C)C)C(=O)N(C)[C@@H](CC(C)C)C(=O)N(C)[C@@H](C(C)C)C(=O)N1C [PSC 833],HCV RNA accumulation was inhibited,[5]; MH-14 cells,not
